Data taken from publication PMC3977580 (Biochemistry, 2014).

Target: T1, SaMTAN (5′-methylthioadenosine/S-adenosylhomocysteine nucleosidase) (Staphylococcus aureus, UniProt Q99TQ0)
T1 sequence (Q99TQ0 1-228): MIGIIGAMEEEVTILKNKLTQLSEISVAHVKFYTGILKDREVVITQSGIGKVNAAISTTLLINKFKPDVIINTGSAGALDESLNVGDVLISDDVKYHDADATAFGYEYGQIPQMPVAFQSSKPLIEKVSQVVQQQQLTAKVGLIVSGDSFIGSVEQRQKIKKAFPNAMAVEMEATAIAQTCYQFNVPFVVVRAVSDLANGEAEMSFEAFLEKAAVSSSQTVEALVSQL
Test: ITC
Format: binding

- Kd: 9 nM
SMILES: CSC[C@H]1CN(Cc2c[nH]c3c(N)ncnc23)C[C@@H]1O [MT-DADMe-ImmA]
